In patent US20050112573A1, “Method of detecting toxic substance” (priority 2001, published 2005):

Test system: yeast genes (level of expressed mRNA)
Assay: DNA chip analysis of expressed mRNA of yeast genes after 2 h culture with a toxic chemical substance
Format: cell-based, Saccharomyces cerevisiae S288C
Method in brief: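 S. cerevisiae S288C in YPD at 25 °C was exposed at log phase for 2 h to a growth-inhibiting, non-lethal concentration of the chemical. Poly(A) mRNA was reverse-transcribed with Cy3- or Cy5-dUTP and hybridized to a whole-genome yeast DNA chip (65 °C, >12 h). Values are fluorescence ratios versus untreated cells.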

S=C([S-])NCCNC(=S)[S-].[Zn+2] [(11), zinc N,N′-ethylenebis(dithiocarbamate)]
0.7: The level of expressed mRNA in the presence of chemical substance/absence: YHL006C (gene YHL006C) | The level of expressed mRNA in the presence of chemical substance/absence: YHR105W (gene YHR105W) | The level of expressed mRNA in the presence of chemical substance/absence: YHR134W (gene YHR134W) | The level of expressed mRNA in the presence of chemical substance/absence: YNL276C (gene YNL276C) | level of expressed mRNA in the presence of chemical substance/in its absence (gene YNR019W) | The level of expressed mRNA in the presence of chemical substance/absence: YOR138C (gene YOR138C)
1.2: The level of expressed mRNA in the presence of chemical substance/absence: YIL108W (gene YIL108W) | level of expressed mRNA in the presence of chemical substance/in its absence (gene YIL154C) | The level of expressed mRNA in the presence of chemical substance/absence: YML029W (gene YML029W) | The level of expressed mRNA in the presence of chemical substance/absence: YML079W (gene YML079W) | The level of expressed mRNA in the presence of chemical substance/absence: YMR071C (gene YMR071C) | The level of expressed mRNA in the presence of chemical substance/absence: YNL176C (gene YNL176C) | The level of expressed mRNA in the presence of chemical substance/absence: YNL181W (gene YNL181W) | The level of expressed mRNA in the presence of chemical substance/absence: YOL026C (gene YOL026C) | level of expressed mRNA in the presence of chemical substance/in its absence (gene YOL157C) | level of expressed mRNA in the presence of chemical substance/in its absence (gene YOR099W)
3.8: level of expressed mRNA in the presence of chemical substance/in its absence (gene YLR142W)
2.4: level of expressed mRNA in the presence of chemical substance/in its absence (gene YOL153C)
2.0: level of expressed mRNA in the presence of chemical substance/in its absence (gene YOL143C)
1.4: The level of expressed mRNA in the presence of chemical substance/absence: YHL021C (gene YHL021C) | The level of expressed mRNA in the presence of chemical substance/absence: YHR180W (gene YHR180W) | The level of expressed mRNA in the presence of chemical substance/absence: YJL017W (gene YJL017W) | level of expressed mRNA in the presence of chemical substance/in its absence (gene YJL132W) | level of expressed mRNA in the presence of chemical substance/in its absence (gene YLR273C) | The level of expressed mRNA in the presence of chemical substance/absence: YLR392C (gene YLR392C) | The level of expressed mRNA in the presence of chemical substance/absence: YMR258C (gene YMR258C) | level of expressed mRNA in the presence of chemical substance/in its absence (gene YNL037C) | level of expressed mRNA in the presence of chemical substance/in its absence (gene YOR136W)
2.2: level of expressed mRNA in the presence of chemical substance/in its absence (gene YJR159W)
1.6: The level of expressed mRNA in the presence of chemical substance/absence: YJL037W (gene YJL037W) | The level of expressed mRNA in the presence of chemical substance/absence: YKL100C (gene YKL100C) | The level of expressed mRNA in the presence of chemical substance/absence: YLR339C (gene YLR339C) | level of expressed mRNA in the presence of chemical substance/in its absence (gene YNL012W) | level of expressed mRNA in the presence of chemical substance/in its absence (gene YNR002C) | The level of expressed mRNA in the presence of chemical substance/absence: YOR155C (gene YOR155C)
2.1: level of expressed mRNA in the presence of chemical substance/in its absence (gene YNL045W) | level of expressed mRNA in the presence of chemical substance/in its absence (gene YNL104C)
3.1: The level of expressed mRNA in the presence of chemical substance/absence: YNL200C (gene YNL200C)
0.4: level of expressed mRNA in the presence of chemical substance/in its absence (gene YNR033W)
17.1: The level of expressed mRNA in the presence of chemical substance/absence: YNL194C (gene YNL194C)
1.8: level of expressed mRNA in the presence of chemical substance/in its absence (gene YIL033C) | The level of expressed mRNA in the presence of chemical substance/absence: YJL032W (gene YJL032W) | The level of expressed mRNA in the presence of chemical substance/absence: YKL051W (gene YKL051W) | level of expressed mRNA in the presence of chemical substance/in its absence (gene YKL067W) | level of expressed mRNA in the presence of chemical substance/in its absence (gene YOL126C)
1.7: level of expressed mRNA in the presence of chemical substance/in its absence (gene YHR037W) | The level of expressed mRNA in the presence of chemical substance/absence: YLR097C (gene YLR097C) | level of expressed mRNA in the presence of chemical substance/in its absence (gene YLR180W) | level of expressed mRNA in the presence of chemical substance/in its absence (gene YML110C) | level of expressed mRNA in the presence of chemical substance/in its absence (gene YMR271C) | The level of expressed mRNA in the presence of chemical substance/absence: YOR022C (gene YOR022C)
1.9: level of expressed mRNA in the presence of chemical substance/in its absence (gene YIL167W) | The level of expressed mRNA in the presence of chemical substance/absence: YJR044C (gene YJR044C) | level of expressed mRNA in the presence of chemical substance/in its absence (gene YKR039W)
0.8: The level of expressed mRNA in the presence of chemical substance/absence: YJR030C (gene YJR030C) | The level of expressed mRNA in the presence of chemical substance/absence: YKR040C (gene YKR040C) | The level of expressed mRNA in the presence of chemical substance/absence: YLR226W (gene YLR226W) | level of expressed mRNA in the presence of chemical substance/in its absence (gene YLR307W) | The level of expressed mRNA in the presence of chemical substance/absence: YLR415C (gene YLR415C) | The level of expressed mRNA in the presence of chemical substance/absence: YLR427W (gene YLR427W) | level of expressed mRNA in the presence of chemical substance/in its absence (gene YMR272C) | level of expressed mRNA in the presence of chemical substance/in its absence (gene YMR296C) | level of expressed mRNA in the presence of chemical substance/in its absence (gene YNL169C) | The level of expressed mRNA in the presence of chemical substance/absence: YNL253W (gene YNL253W) | The level of expressed mRNA in the presence of chemical substance/absence: YOR088W (gene YOR088W)
1.0: The level of expressed mRNA in the presence of chemical substance/absence: YHL037C (gene YHL037C) | level of expressed mRNA in the presence of chemical substance/in its absence (gene YLR300W) | The level of expressed mRNA in the presence of chemical substance/absence: YMR114C (gene YMR114C) | The level of expressed mRNA in the presence of chemical substance/absence: YMR160W (gene YMR160W) | The level of expressed mRNA in the presence of chemical substance/absence: YNL058C (gene YNL058C) | The level of expressed mRNA in the presence of chemical substance/absence: YNL191W (gene YNL191W) | level of expressed mRNA in the presence of chemical substance/in its absence (gene YNR059W)
2.3: level of expressed mRNA in the presence of chemical substance/in its absence (gene YJL196C) | The level of expressed mRNA in the presence of chemical substance/absence: YKL090W (gene YKL090W) | level of expressed mRNA in the presence of chemical substance/in its absence (gene YOL058W)
1.5: level of expressed mRNA in the presence of chemical substance/in its absence (gene YGR282C) | level of expressed mRNA in the presence of chemical substance/in its absence (gene YHR092C) | The level of expressed mRNA in the presence of chemical substance/absence: YJL049W (gene YJL049W) | The level of expressed mRNA in the presence of chemical substance/absence: YJL097W (gene YJL097W) | level of expressed mRNA in the presence of chemical substance/in its absence (gene YNL130C) | The level of expressed mRNA in the presence of chemical substance/absence: YNR051C (gene YNR051C)
3.0: level of expressed mRNA in the presence of chemical substance/in its absence (gene YMR105C)
0.6: The level of expressed mRNA in the presence of chemical substance/absence: YGR293C (gene YGR293C) | level of expressed mRNA in the presence of chemical substance/in its absence (gene YHR137W) | level of expressed mRNA in the presence of chemical substance/in its absence (gene YJR148W) | The level of expressed mRNA in the presence of chemical substance/absence: YKL097C (gene YKL097C) | level of expressed mRNA in the presence of chemical substance/in its absence (gene YNL322C) | level of expressed mRNA in the presence of chemical substance/in its absence (gene YOR130C)
0.9: The level of expressed mRNA in the presence of chemical substance/absence: YIL127C (gene YIL127C) | level of expressed mRNA in the presence of chemical substance/in its absence (gene YJL088W) | level of expressed mRNA in the presence of chemical substance/in its absence (gene YJR142W) | The level of expressed mRNA in the presence of chemical substance/absence: YKL059C (gene YKL059C) | The level of expressed mRNA in the presence of chemical substance/absence: YLR338W (gene YLR338W) | The level of expressed mRNA in the presence of chemical substance/absence: YML041C (gene YML041C) | level of expressed mRNA in the presence of chemical substance/in its absence (gene YNL106C) | The level of expressed mRNA in the presence of chemical substance/absence: YNL265C (gene YNL265C)
8.2: level of expressed mRNA in the presence of chemical substance/in its absence (gene YMR189W)
1.1: The level of expressed mRNA in the presence of chemical substance/absence: YIL165C (gene YIL165C) | The level of expressed mRNA in the presence of chemical substance/absence: YML013W (gene YML013W) | The level of expressed mRNA in the presence of chemical substance/absence: YMR068W (gene YMR068W) | The level of expressed mRNA in the presence of chemical substance/absence: YMR115W (gene YMR115W) | The level of expressed mRNA in the presence of chemical substance/absence: YNL026W (gene YNL026W) | The level of expressed mRNA in the presence of chemical substance/absence: YNL063W (gene YNL063W)
1.3: The level of expressed mRNA in the presence of chemical substance/absence: YHR083W (gene YHR083W) | The level of expressed mRNA in the presence of chemical substance/absence: YHR095W (gene YHR095W) | The level of expressed mRNA in the presence of chemical substance/absence: YHR181W (gene YHR181W) | level of expressed mRNA in the presence of chemical substance/in its absence (gene YHR190W) | level of expressed mRNA in the presence of chemical substance/in its absence (gene YIR035C) | The level of expressed mRNA in the presence of chemical substance/absence: YKL094W (gene YKL094W) | The level of expressed mRNA in the presence of chemical substance/absence: YML118W (gene YML118W) | The level of expressed mRNA in the presence of chemical substance/absence: YNL212W (gene YNL212W) | level of expressed mRNA in the presence of chemical substance/in its absence (gene YNL231C) | The level of expressed mRNA in the presence of chemical substance/absence: YOL030W (gene YOL030W) | The level of expressed mRNA in the presence of chemical substance/absence: YOR087W (gene YOR087W)
